Source: PMC8541342, “Expression, Purification and Refolding of a Human NaV1.7 Voltage Sensing Domain with Native-like Toxin Binding Properties” (Toxins, 2021)
“Also recorded” adds a separate entry of the source.

B1: VSD2/DMPC complex: recombinant refolded NaV1.7 VSD of repeat II, residues 732–860 (UniProt ID Q15858-3), reconstituted into DMPC vesicles (protein)
chain: DPFVDLAITICIVLNTLFMAMEHHPMTEEFKNVLAIGNLVFTGIFAAEMVLKLIAMDPYEYFQVGWNIFDSLIVTLSLVELFLADVEGLSVLRSFRLLRVFKLAKSWPTLNMLIKIIGNSVGALGNLTL

Legend:
[1] = system: F813A and D816A mutants of NaV1.7 VSD2 in DMPC vesicles; assay: MST binding to mutant VSD2 compared with WT (overlay, Figure S6); parameters: species or system human; settings: F813A and D816A vs WT VSD2 in DMPC
Description: (Supplementary Material, Figure S5). […] Lastly, it is additional confirmation that our recombinant system captures details of the interactions that correspond to those with full-length channel in native membranes.
The analysis of the MST binding titrations was carried out with the NanoTemper analy sis software, and the relative fluo-rescence measurements and fitted binding cur ves were combined into a single graph to illustrate the rightshift (lower binding affinity) in both mutants. Based on this analysis, both Phe 813 and Asp 816 appear to play an important role in […]

mice = settings: ref [9]; cited from earlier work
Text: This system opens up possibilities for detailed biophysical studies of binding interactions with toxins and other drug candidates for the development of new non-addictive pain therapeutics targeting NaV1.7. In addition, because the protein is expressed in E. coli, it also enables the preparation of isotope-labeled samples or the introduction of unnatural amino acids for structural and functional studies.

full-length NaV1.7 = settings: cited from earlier work
[2] = Dynamic light scattering particle size; format: physicochemical; settings: DLS, VSD2 in DMPC ~40 μM, fixed-angle, 25 °C, spherical geometry assumed
Description: A Brookhaven NanoBrook series instrument was used to perform dynamic light scattering (DLS). The sample in this experiment was the VSD in DMPC solution prepared as described above at a concentration of ~40 μM. Sample was placed into a 1 cm quartz cuvette, and fixed-angle DLS was performed at 25 °C. Measurements of fixed-angle scattering were averaged over time intervals and, therefore, gave the correlation function, which in turn yielded the particle size distribution (assuming exponential correlation), reported as diameter in nm. This processing was done using the NanoBrook instrument analysis software. Particle size analysis assumes spherical geometry.

| Molecule | change in binding affinity for mutants (in words) [1] | analgesic effects in mice (in words) (mice) | IC50 (full-length NaV1.7) | mean particle diameter / size distribution maximum [2] |
| --- | --- | --- | --- | --- |
| CC[C@H](C)[C@@H]1NC(=O)[C@@H]2CSSC[C@@H]3NC(=O)[C@H](C(C)C)NC(=O)[C@H](CC(C)C)NC(=O)[C@H](CC(N)=O)NC(=O)[C@@H]4CCCN4C(=O)[C@H](CCCNC(=N)N)NC(=O)[C@H](CSSC[C@H](NC(=O)[C@@H](N)CC(=O)O)C(=O)N[C@@H](CC(C)C)C(=O)NCC(=O)N[C@@H](Cc4ccccc4)C(=O)N[C@@H](CCSC)C(=O)N[C@@H](CCCNC(=N)N)C(=O)N[C@@H](CCCCN)C(=O)N2)NC(=O)[C@H](CSSC[C@@H](C(=O)N[C@@H](CCCCN)C(=O)N[C@@H](Cc2ccc(O)cc2)C(=O)N[C@H](C(=O)N[C@@H](Cc2ccccc2)C(=O)O)C(C)C)NC(=O)[C@H](Cc2c[nH]c4ccccc24)NC(=O)[C@H](CCCCN)NC(=O)[C@H](Cc2c[nH]cn2)NC(=O)[C@H]([C@@H](C)O)NC(=O)[C@H](CCCNC(=N)N)NC(=O)[C@H](CO)NC3=O)NC(=O)[C@H](CCCCN)NC(=O)[C@H](CC(=O)O)NC(=O)[C@H](CC(N)=O)NC(=O)[C@H](CC(=O)O)NC(=O)[C@@H]2CCCN2C1=O [GpTx-I] | decreases in GpTx-I binding affinity; also recorded: substantial reduction in binding affinity | analgesic effects superior to morphine in mice; also recorded: exhibits analgesic effects in mice | 10 nM |  |
| B1 |  |  |  | roughly 80 nm |
